The text below walks through data of patent US20040224958A1, “Pyridopyrimidinone derivatives for treatment of neurodegenerative disease” (priority 2000, published 2004).

pIC50: −log10 of the molar value. Where two headings read alike, the source gives them in different places.

The target in assay [1] is cdk2/cyclinE (Homo sapiens, UniProt P24941). Description: Cyclin-Dependent Kinase Assay cdk2/cyclinE.
Assay [2] concerns the target cdk4/D (Homo sapiens, UniProt P11802). Description: Cyclin-Dependent Kinase 4 (cdk4) Assay. It counts as biochemical. The following applies: read-out: cdk4/D IC50.
For assay [3], the target named is cdc2/cyclinB (Homo sapiens, UniProt P06493). Description: Cyclin-Dependent Kinase Assay cdc2/cyclinB.
Chain of cdc2/cyclinB (P06493 whole entry): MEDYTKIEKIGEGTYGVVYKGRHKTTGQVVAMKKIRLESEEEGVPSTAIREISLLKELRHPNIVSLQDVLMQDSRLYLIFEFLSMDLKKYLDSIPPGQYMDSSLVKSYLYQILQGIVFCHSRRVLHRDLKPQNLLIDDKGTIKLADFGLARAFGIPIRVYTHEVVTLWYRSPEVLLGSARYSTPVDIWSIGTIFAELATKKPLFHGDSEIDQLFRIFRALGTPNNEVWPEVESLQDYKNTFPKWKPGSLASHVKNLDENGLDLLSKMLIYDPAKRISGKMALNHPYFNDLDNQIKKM
Chain of cdc2/cyclinB (P14635 whole entry, further chain): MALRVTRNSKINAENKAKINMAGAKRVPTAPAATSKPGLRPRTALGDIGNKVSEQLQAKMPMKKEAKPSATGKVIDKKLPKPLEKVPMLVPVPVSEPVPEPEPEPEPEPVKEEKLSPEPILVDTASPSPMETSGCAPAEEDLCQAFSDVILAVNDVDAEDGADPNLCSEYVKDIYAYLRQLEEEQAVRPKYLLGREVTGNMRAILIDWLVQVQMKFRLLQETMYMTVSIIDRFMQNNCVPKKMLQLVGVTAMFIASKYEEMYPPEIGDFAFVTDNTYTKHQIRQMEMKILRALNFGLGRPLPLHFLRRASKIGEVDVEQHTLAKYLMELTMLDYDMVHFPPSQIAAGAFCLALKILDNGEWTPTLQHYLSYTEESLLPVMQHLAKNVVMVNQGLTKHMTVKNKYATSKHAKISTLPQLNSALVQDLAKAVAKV
Assay [4] has as its target cdk2/cyclinA (Homo sapiens, UniProt P24941). Description: Cyclin-Dependent Kinase Assay cdk2/cyclinA.
Description: Cyclin-Dependent Kinase Assays (cdk2/cyclinE, cdk2/cyclinA, cdc2/cyclinB)
All components except the ATP were added to the wells, and the plate was placed on a plate mixer for 2 minutes. The reaction was begun by addition of [^32P]ATP, and the plate was incubated at 25° C. for 15 minutes. The reaction was terminated by addition of 0.1 mL of 20% TCA. The plate was kept at 4° C. for at least 1 hour to allow the substrate to precipitate. The wells were then washed five times with 0.2 mL of 10% TCA and ^32p incorporation determined with a beta plate counter (Wallac Inc., Gaithersburg, Md.).
For assay [5], the target named is Cdk5/p25 (Homo sapiens, UniProt Q00535). Description: Cyclin-Dependent Kinase 5 High Throughput Screening (cdk5-HTS) Assay. Type of assay: biochemical. The following applies: high throughput screen. Put shortly:
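Cdk5/p25 (1.0 μg/mL) phosphorylates GST-RbCOOH (20 μg/mL) in 50 mM Tris pH 7.4 with 10 mM MgCl2 and 20 μM ATP spiked with [γ33P]ATP, 30 min at room temperature. After EDTA stop, substrate captured on glutathione-coated plates; 33P incorporation counted by scintillation; IC50 determined.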

Chain of cdk4/D (P11802 whole entry): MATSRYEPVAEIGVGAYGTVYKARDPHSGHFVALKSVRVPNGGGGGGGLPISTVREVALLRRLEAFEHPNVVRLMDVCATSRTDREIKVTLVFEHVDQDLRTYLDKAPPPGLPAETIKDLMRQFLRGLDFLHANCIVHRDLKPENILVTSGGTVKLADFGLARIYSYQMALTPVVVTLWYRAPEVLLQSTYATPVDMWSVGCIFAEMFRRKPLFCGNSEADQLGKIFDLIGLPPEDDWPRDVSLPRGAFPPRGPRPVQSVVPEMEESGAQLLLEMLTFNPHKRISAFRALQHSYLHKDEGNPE
Chain of cdk4/D (P24385 whole entry, further chain): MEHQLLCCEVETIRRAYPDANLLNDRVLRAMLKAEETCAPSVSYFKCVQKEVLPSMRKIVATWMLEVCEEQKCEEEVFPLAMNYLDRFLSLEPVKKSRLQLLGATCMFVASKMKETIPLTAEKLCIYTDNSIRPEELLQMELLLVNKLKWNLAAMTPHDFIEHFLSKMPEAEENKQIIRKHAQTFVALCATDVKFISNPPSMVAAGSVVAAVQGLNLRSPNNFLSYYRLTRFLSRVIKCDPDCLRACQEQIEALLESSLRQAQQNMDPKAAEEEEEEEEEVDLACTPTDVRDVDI

Turning to `CCC(C)n1c(=O)ccc2cnc(Nc3ccc(C)c(Cl)c3)nc21` (stereo not shown) [Example 467, 8-sec-Butyl-2-(3-chloro-4-methyl-phenylamino)-8H-pyrido[2,3-d]pyrimidin-7-one], the pIC50 is 7.01 in assay [1] (cdk2/E IC50); 7.02 in assay [2]; 6.72 in assay [3]; 6.57 in assay [4] (cdk2/A IC50); 8.10 in assay [5].
Consider `CCC(C)n1c(=O)ccc2cnc(Nc3ccc(Cl)c(C(F)(F)F)c3)nc21` (stereo not shown) [Example 468, 8-sec-Butyl-2-(4-chloro-3-trifluoromethyl-phenylamino)-8H-pyrido[2,3-d]pyrimidin-7-one], for which the pIC50 was 6.48 in assay [1] (cdk2/E IC50); 6.02 in assay [2]; 6.47 in assay [3]; 6.28 in assay [4] (cdk2/A IC50); 7.58 in assay [5].
For `CCC(C)n1c(=O)ccc2cnc(Nc3cccc(S(N)(=O)=O)c3)nc21` (stereo not shown) [Example 469, 3-(8-sec-Butyl-7-oxo-7,8-dihydro-pyrido[2,3-d]pyrimidin-2-ylamino)-benzenesulfonamide] the same measures were 7.34, 7.52, 7.05, 6.62 and 8.02.
As to `CCC(C)n1c(=O)ccc2cnc(Nc3ccc4c(c3)CCCC4=O)nc21` (stereo not shown) [Example 470, 8-sec-Butyl-2-(5-oxo-5,6,7,8-tetrahydro-naphthalen-2-ylamino)-8H-pyrido[2,3-d]pyrimidin-7-one], the pIC50 in assay [1] (cdk2/E IC50) was 7.30; in assay [2], 6.96; in assay [3], 7.17; in assay [4] (cdk2/A IC50), 6.82; in assay [5], 8.21.
Take `CCC(C)n1c(=O)ccc2cnc(Nc3ccc(N(C)C(C)=O)cc3)nc21` (stereo not shown) [Example 471, N-[4-(8-sec-Butyl-7-oxo-7,8-dihydro-pyrido[2,3-d]pyrimidin-2-ylamino)-phenyl]-N-methyl-acetamide]: the pIC50 is 6.66 in assay [1] (cdk2/E IC50); 6.92 in assay [2]; 6.47 in assay [3]; 6.28 in assay [4] (cdk2/A IC50); 7.31 in assay [5].
Turning to `CCC(C)n1c(=O)ccc2cnc(Nc3cc(F)cc(F)c3)nc21` (stereo not shown) [Example 472, 8-sec-Butyl-2-(3,5-difluoro-phenylamino)-8H-pyrido[2,3-d]pyrimidin-7-one], the pIC50 was 6.70 in assay [1] (cdk2/E IC50); 6.43 in assay [2]; 6.60 in assay [3]; 6.82 in assay [4] (cdk2/A IC50); 7.28 in assay [5].
For `CCC(C)n1c(=O)ccc2cnc(Nc3ccc(C#N)cc3)nc21` (stereo not shown) [Example 474, 4-(8-sec-Butyl-7-oxo-7,8-dihydro-pyrido[2,3-d]pyrimidin-2-ylamino)-benzonitrile], the pIC50 is 6.85 in assay [1] (cdk2/E IC50); 6.68 in assay [2]; 6.62 in assay [3]; 6.96 in assay [4] (cdk2/A IC50); 7.39 in assay [5].
On to `CCC(C)n1c(=O)ccc2cnc(Nc3ccc(F)c([N+](=O)[O-])c3)nc21` (stereo not shown) [Example 475, 8-sec-Butyl-2-(4-fluoro-3-nitro-phenylamino)-8H-pyrido[2,3-d]pyrimidin-7-one], for which the pIC50 is 6.09 in assay [1] (cdk2/E IC50); 5.85 in assay [2]; 5.96 in assay [3]; 5.82 in assay [4] (cdk2/A IC50); 6.32 in assay [5].
For the compound `CCC(C)n1c(=O)ccc2cnc(Nc3ccc(C)c(C)c3)nc21` (stereo not shown) [Example 476, 8-sec-Butyl-2-(3,4-dimethyl-phenylamino)-8Hi-pyrido[2,3-d]pyrimidin-7-one], the pIC50 was 6.70 in assay [1] (cdk2/E IC50); 6.64 in assay [2]; 6.77 in assay [3]; 6.80 in assay [4] (cdk2/A IC50); 7.51 in assay [5].
As to `CCC(CC)n1c(=O)ccc2cnc(Nc3ccc(F)c(Cl)c3)nc21` [Example 481, 2-(3-Chloro-4-fluoro-phenylamino)-8-(1-ethyl-propyl)-8H-pyrido[2,3-d]pyrimidin-7-one], the pIC50 in assay [1] (cdk2/E IC50) is 7.16; in assay [2], 6.03; in assay [3] it was 6.87; in assay [4] (cdk2/A IC50), 6.38; in assay [5], 7.41.
Take `CCC(CC)n1c(=O)ccc2cnc(Nc3ccc(C)c(F)c3)nc21` [Example 482, 8-(1-Ethyl-propyl)-2-(3-fluoro-4-methyl-phenylamino)-8H-pyrido[2,3-d]pyrimidin-7-one]: the pIC50 was 6.82 in assay [1]; 6.78 in assay [2]; 6.67 in assay [3]; 6.22 in assay [4]; 7.20 in assay [5].
For `CCC(CC)n1c(=O)ccc2cnc(Nc3ccc(F)cc3F)nc21` [Example 483, 2-(2,4-Difluoro-phenylamino)-8-(1-ethyl-propyl)-8H-pyrido[2,3-d]pyrimidin-7-one], the pIC50 is 6.45 in assay [1] (cdk2/E IC50); 5.88 in assay [2]; 6.14 in assay [3]; 5.78 in assay [4] (cdk2/A IC50); 6.77 in assay [5].
Consider `CCC(CC)n1c(=O)ccc2cnc(Nc3ccc(C#N)cc3)nc21` [Example 484], for which the pIC50 is 6.87 in assay [1] (cdk2/E IC50); 6.73 in assay [2]; 6.72 in assay [3]; 6.44 in assay [4] (cdk2/A IC50); 7.39 in assay [5].
On to `CCC(CC)n1c(=O)ccc2cnc(Nc3ccc(Cl)c(C(F)(F)F)c3)nc21` [Example 486, 2-(4-Chloro-3-trifluoromethyl-phenylamino)-8-(1-ethyl-propyl)-8H-pyrido[2,3-d]pyrimidin-7-one], for which the pIC50 in assay [1] (cdk2/E IC50) is 6.33; in assay [2], 5.99; in assay [3], 6.66; in assay [4] (cdk2/A IC50), 6.04; in assay [5] it was 7.08.
On to `CCC(CC)n1c(=O)ccc2cnc(Nc3cccc(C(F)(F)F)c3)nc21` [Example 487, 8-(1-Ethyl-propyl)-2-(3-trifluoromethyl-phenylamino)-8H-pyrido[2,3-d]pyrimidin-7-one], for which the pIC50 in assay [1] (cdk2/E IC50) was 6.68; in assay [2], 6.16; in assay [3] it was 6.75; in assay [4] (cdk2/A IC50), 6.14; in assay [5], 7.11.
For the compound `CCC(CC)n1c(=O)ccc2cnc(Nc3ccc(Br)c(C(F)(F)F)c3)nc21` [Example 488, 2-(4-Bromo-3-trifluoromethyl-phenylamino)-8-(1-ethyl-propyl)-8H-pyrido[2,3-d]pyrimidin-7-one], the pIC50 in assay [1] (cdk2/E IC50) is 6.31; in assay [2], 5.65; in assay [3] it was 6.35; in assay [4] (cdk2/A IC50) it was 5.70; in assay [5], 6.90.
As to `CCC(CC)n1c(=O)ccc2cnc(Nc3cccc(I)c3)nc21` [Example 490, 8-(1-Ethyl-propyl)-2-(3-iodo-phenylamino)-8H-pyrido[2,3-d]pyrimidin-7-one], the pIC50 is 7.10 in assay [1] (cdk2/E IC50); 6.46 in assay [2]; 7.06 in assay [3]; 6.12 in assay [4] (cdk2/A IC50); 7.31 in assay [5].
For `CCC(CC)n1c(=O)ccc2cnc(Nc3ccc(C)c(C)c3)nc21` [Example 491, 2-(3,4-Dimethyl-phenylamino)-8-(I-ethyl-propyl)-8H-pyrido[2,3-d]pyrimidin-7-one] the same measures were 6.75, 6.59, 6.82, 6.36 and 7.35.
Consider `CCC(CC)n1c(=O)ccc2cnc(Nc3ccc4[nH]ccc4c3)nc21` [Example 492, 8-(1-Ethyl-propyl)-2-(1H-indol-5-ylamino)-8H-pyrido[2,3-d]pyrimidin-7-one], for which the pIC50 is 6.79 in assay [1] (cdk2/E IC50); 6.90 in assay [2]; 6.84 in assay [3]; 6.22 in assay [4] (cdk2/A IC50); 7.07 in assay [5].
For `CCC(CC)n1c(=O)ccc2cnc(Nc3ccc4[nH]c(=O)[nH]c4c3)nc21` [Example 493, 8-(1-Ethyl-propyl)-2-(2-oxo-2,3-dihydro-1H-benzimidazol-5-ylamino)-8H-pyrido[2,3-d]pyrimidin-7-one] the same measures were 7.92, 7.60, 7.84, 7.30 and 8.06.
For `CCC(CC)n1c(=O)ccc2cnc(Nc3ccc(NC(=O)OC(C)(C)C)cc3)nc21` [Example 494, {4-[8-(1-Ethyl-propyl)-7-oxo-7,8-dihydro-pyrido[2,3-d]pyrimidin-2-ylamino]-phenyl}-carbamic acid tert-butyl ester], the pIC50 in assay [1] (cdk2/E IC50) is 6.90; in assay [2], 6.64; in assay [3] it was 6.99; in assay [4] (cdk2/A IC50), 6.36; in assay [5] it was 7.14.
As to `CCC(CC)n1c(=O)ccc2cnc(Nc3ccc(O)cc3F)nc21` [Example 495, 8-(1-Ethyl-propyl)-2-(2-fluoro-4-hydroxy-phenylamino)-8H-pyrido[2,3-d]pyrimidin-7-one], the pIC50 in assay [1] (cdk2/E IC50) is 6.83; in assay [2], 6.24; in assay [3], 6.67; in assay [4] (cdk2/A IC50), 6.19; in assay [5] it was 6.97.
With `CCC(CC)n1c(=O)ccc2cnc(Nc3ccc(O)c(Cl)c3)nc21` [Example 496, 2-(3-Chloro-4-hydroxy-phenylamino)-8-(1-ethyl-propyl)-8H-pyrido[2,3-d]pyrimidin-7-one], the pIC50 in assay [1] (cdk2/E IC50) is 7.51; in assay [2] it was 6.55; in assay [3], 7.62; in assay [4] (cdk2/A IC50) it was 7.05; in assay [5], 7.76.
